Consider nine molecules from patent publication US8506984B2, “Therapeutic agent elution control process” (Cordis Corporation, priority 2006, dated 2013).

Usually IC50 stands for the concentration at which inhibition is half-maximal.

Each structure is given as a SMILES string.

The nature of data set [1]: Drug concentration in liquid formulations (liquid chromatography / HPLC). Type of data set: physicochemical. The conditions noted are these: Vitamin E TPGS excipient, water and ethanol (<2%) co-solvents. The text has this: In accordance with exemplary embodiments of the present invention, a series of liquid formulations were developed for the local or regional delivery of water insoluble compounds such as sirolimus and its analogs, including CCI-779, ABT-578 and everolimus, through weeping balloons and catheter injection needles. […] These liquid formulations increase the apparent solubility of the pharmacologically active but water insoluble compounds by two to four orders of magnitude as compared to the solubility limits of the compounds in water. These liquid formulations rely on the use of a very small amount of organic solvents such as Ethanol (typically less than two percent) and a larger amount of safe amphiphilic (of or relating to a molecule having a polar, water soluble group attached to a non-polar, water insoluble […]) excipients such as polyethylene glycol (PEG 200, PEG 400) and vitamin E TPGS to enhance the solubility of the compounds. These liquid formulations of highly water insoluble compounds are stable and readily flowable at room temperature. Certain excipients, such as Vitamin E TPGS and BHT may be utilized to enhance the storage stability of sirolimus compounds through their anti-oxidation properties. […]

In data set [2] the test system is human coronary artery smooth muscle cells. The data set can be described thus: Proliferation of non-synchronized cultured human coronary artery smooth muscle cells stimulated with two percent fetal bovine serum. Type of data set: cell-based. The note with it: for effect of added agent on anti-proliferative rapamycin dose response: added to rapamycin-treated cells. An excerpt: The multiple curves represent various concentrations of mycophenolic acid ranging from zero to one thousand nanomolar concentrations. […] This potentiation observed in cultured coronary artery smooth muscle cells preferably translates to an enhancement in anti-restenotic efficacy following vascular injury and a reduction in the required amount of either agent to achieve the desired anti-restenotic effect.
FIG. 58 illustrates, in graphical format, the anti-proliferative activity of cladribine in non-synchronized cultured human coronary artery smooth muscle cells stimulated with two percent fetal bovine serum.
The multiple curves represent various concentrations of cladribine ranging from zero to nine hundred nanomolar concentrations. […] As illustrated, the percent inhibition increases substantially as the dose of cladribine increases.

The test system is the same in data set [3]. The experiment in a line: Proliferation of synchronized cultured human coronary artery smooth muscle cells stimulated with two percent fetal bovine serum. Type of data set: cell-based. The conditions noted are these: for effect of added agent on anti-proliferative rapamycin dose response: added to rapamycin-treated cells. The text has this: (§1) The multiple curves represent various concentrations of topotecan ranging from zero to three hundred nanomolar concentrations.
(§2) The multiple curves represent various concentrations of etoposide ranging from zero to eight hundred nanomolar concentrations.
The multiple curves represent various concentrations of Panzem® ranging from zero to 100 micromolar concentrations.

In data set [4] the test system is human coronary artery smooth muscle cell. The experiment in a line: MTS cytotoxicity assay. Type of data set: cell-based. The conditions noted are these: concentrations up to 30,000.00 nanomolar. The text has this:
Typically, a control is utilized to determine baseline toxicity.
In general terms: Formazan colour is commonly taken as a measure of viable cells.

The nature of data set [5]: Porcine drug elution PK study of dual drug eluting stent. Type of data set: in vivo. The note with it: after eight (8) days of implantation; single-layer sirolimus/cilostazol coating (FIG. 83), 100 μg BMA overcoat. The text has this:
Another critical parameter for the performance of the thrombus resistance of a device coated with cilostazol is the duration of the drug release from the coating. This is of particular significance in the two weeks after device implantation. In the porcine drug elution PK studies of the dual drug eluting coating, both cilostazol and sirolius were slowly released from the coating, resulting in a sustained drug release profile. The purpose of the porcine PK study is to assess the local pharmacokinetics of a drug eluting stent at a given implantation time. Normally three stents are implanted in three different coronary arteries in a pig for a given time point and then retrieved for total drug recovery analysis. The stents are retrieved at predetermined time points; namely, 1, 3 and 8 days. The stents are extracted and the total amount of drug remaining on the stents is determined by analysis utilizing HPLC (high performance liquid chromatography) for total drug amount. The difference between the original amount of drug on the stent and the amount of drug retrieved at a given time represents the amount of drug released in that period. The continuous release of drug into surrounding arterial tissue is what prevents the neointimal growth and restenosis in the coronary artery. A normal plot represents the percentage of total drug released (%, y-axis) vs. time of implantation (day, x-axis). […]

Data set [6] in a line: In vitro release from sirolimus/cilostazol single layer stent coating. Type of data set: physicochemical. The note with it: single-layer sirolimus/cilostazol coating (FIG. 83).
For a further data set, the system named is cell viability. The data set can be described thus: Cell viability assay. Type of data set: cell-based.
Source text: as §1, §2

The test system of data set [7] is human coronary artery smooth muscle cell. The data set can be described thus: Human coronary artery smooth muscle cell proliferation, in vitro cell culture study (trichostatin A). Type of data set: cell-based. The text has this: FIG. 51 is a graph of the inhibition of coronary artery smooth muscle cells by trichostatin A in a cell culture study.
The test system of the next data set is tumor cell lines. The note with it: cited from earlier work.

Regarding `CO[C@H]1C[C@@H]2CC[C@@H](C)[C@@](O)(O2)C(=O)C(=O)N2CCCC[C@H]2C(=O)O[C@H]([C@H](C)C[C@@H]2CC[C@@H](OC(=O)C(C)(CO)CO)[C@H](OC)C2)CC(=O)[C@H](C)/C=C(\C)[C@@H](O)[C@@H](OC)C(=O)[C@H](C)C[C@H](C)/C=C/C=C/C=C/1C` [CCI-779], the “concentration in the final solution (HPLC assay)” value in data set [1] was 15000 µg/mL.

Take `Nc1nc(Cl)nc2c1ncn2[C@H]1C[C@H](O)[C@@H](CO)O1` [Cladribine, 2-chlorodeoxyadenosine]: in data set [2], the “effect of added agent on anti-proliferative rapamycin dose response” value (from here on “effect of added agent”) is reported as “potentiate the anti-proliferative activity of rapamycin”. Also, the “inhibition of human coronary artery smooth muscle cell proliferation” value in [2] (two percent fetal bovine serum) is on record as “completely inhibits”.

In the case of `COc1cc2c(cc1O)CC[C@@H]1[C@@H]2CC[C@]2(C)[C@@H](O)CC[C@@H]12` [Panzem®, 2-methoxyestradiol], the “effect of added agent” value in data set [3] was “increases the percent of inhibition of rapamycin alone”. Also, the “inhibition of human coronary artery smooth muscle cell proliferation in vitro” value in [3] (two percent fetal bovine serum) was “extremely effective inhibitor”. Besides, in data set [4], the “human coronary artery smooth muscle cell survival (MTS)” value is on record as “do not reduce human coronary artery smooth muscle cell survival”.

For the molecule `CO[C@H]1C[C@@H]2CC[C@@H](C)[C@@](O)(O2)C(=O)C(=O)N2CCCC[C@H]2C(=O)O[C@H]([C@H](C)C[C@@H]2CC[C@@H](O)[C@H](OC)C2)CC(=O)[C@H](C)/C=C(\C)[C@@H](O)[C@@H](OC)C(=O)[C@H](C)C[C@H](C)/C=C/C=C/C=C/1C` [Rapamycin, rapamycin], in [5], the “drug remaining in the drug coating” value was around 80%.

Take `O=C1CCc2cc(OCCCCc3nnnn3C3CCCCC3)ccc2N1` [cilostazol, 6[4-(1-cyclohexyl-1H-tetrazol-5-yl)-butoxy]-3,4-dihydro-2-(1H)-quinolinone]: in data set [5], the “drug remaining in the drug coating” value is listed as around 80%. This molecule also came in with an in vitro release in data set [6] of around 35%.

`COc1cc([C@@H]2c3cc4c(cc3[C@@H](O[C@@H]3O[C@@H]5CO[C@@H](C)O[C@H]5[C@H](O)[C@H]3O)[C@H]3COC(=O)[C@H]23)OCO4)cc(OC)c1O` [etoposide]: the “effect of added agent” value in [2] is given as “potentiate the anti-proliferative activity of rapamycin”. Moreover, in the data set on cell viability (concentrations up to ten micromolar), the “cytotoxicity in cell viability assay” value is “non-cytotoxic”.

Take `COc1c(C)c2c(c(O)c1C/C=C(\C)CCC(=O)O)C(=O)OC2` [mycophenolic acid]: the “effect of added agent” value in [2] is on record as “potentiates the anti-proliferative activity of rapamycin”.

Take `CC[C@@]1(O)C(=O)OCc2c1cc1n(c2=O)Cc2cc3c(CN(C)C)c(O)ccc3nc2-1` [topotecan]: the “effect of added agent” value in [3] is listed as “potentiate the anti-proliferative activity of rapamycin”. Besides, the “cytotoxicity in cell viability assay” value in the data set with cell viability (concentrations up to one micromolar) was “non-cytotoxic”.

Take `CC(/C=C/C(=O)NO)=C\[C@@H](C)C(=O)c1ccc(N(C)C)cc1` [trichostatin A]: the “inhibition of human coronary artery smooth muscle cell proliferation” value in data set [7] was “completely inhibit”. The IC50 in data set [7] (read-out: anti-proliferative IC50) was around 6 nM. Besides, the “anti-proliferative IC50” value with tumor cell lines is “low nM range”.
